From patent publication US20050171194A1, “Enlargement of mucocutaneous or cutaneous organs and sites with topical compositions” (priority 2003, published 2005) come the findings set out here.

One test relates to forearm skin. Put plainly: Forearm skin thickness measured by micrometer calipers after topical application. Type of test: in vivo, human. The note with it: for % Increase Over (summary of increased skin thickness): 10-35% concentration twice daily on forearm skin, range over 2-13 subjects. The text has this: Measuring the increase in thickness of the skin was accomplished in accordance with the following procedures. The increased plumpness or skin thickness by topical application of active ingredients of the embodiments is mainly due to increased biosynthesis of dermal components in the skin. The three most important dermal components are glycosaminoglycans (GAGs), collagens and elastic fibers. The increased skin thickness caused by increased biosynthesis of dermal components can be distinguished from that by water retention or edema formation. In the former case, the skin remains thickened for weeks and months after termination of topical application. In the latter case, the increased skin thickness returns to the original skin thickness within days after termination of topical application. • (1) Forearm Skin
The most convenient body area for testing skin thickness is the forearm skin. For example, a test substance in a formulation was topically applied once or twice daily to left or right forearm for 3 to 6 months and the other forearm was untreated or treated with a vehicle control. The skin plumpness or thickness was measured by micrometer calipers as follows. The skin was grasped with a 2×6 cm hinge plate, the internal faces of the hinge were coated with soft cloth to prevent slippage, and manually squeezed to a threshold point when the subject felt tight. Combined skin thickness of two whole-skin layers including thickness of the two hinge leaves was measured with micrometer calipers. Thickness of the two hinge leaves was subtracted to determine the actual thickness of two whole-skin layers. Triplicate measurements on treated site were done and an average number was used for calculation of the skin thickness. […]
Hydroxycarboxylic acids, N-acyl-aldosamines, N-acylamino acids and related compounds at various concentrations were topically applied to forearms of volunteer subjects or patients. As shown in Tables 1-7, the skin plumpness or thickness was increased substantially by the compounds of the present invention. The increased skin thickness was believed to be due to increased biosynthesis of GAGs, collagen and elastic fibers. […]. From the above test results, hydroxycarboxylic acids, N-acyl-aldosamines, N-acylamino acids and related compounds used alone or in combination should be beneficial to plump and pout lips, enhance and firm eyelids, enlarge and augment breasts, elongate and expand penis.
In one of the studies, skin thickness was measured by micrometer calipers as follows: The skin was grasped with a 2×6 cm metal hinge; the internal faces of which were coated with emery cloth to prevent slippage, and manually squeezed to threshold subject discomfort. Combined thickness of two whole-skin layers including thickness of the two hinge leaves was measured with micrometer calipers. Thickness of the two hinge leaves was subtracted to determine the actual thickness of two whole-skin layers. Triplicate measurements on treated sites were conducted and an average number was used for calculation of the skin thickness.

Another test concerns breasts. Description: Breast enlargement after topical application, clinical evaluation and brassiere cup. In kind it is in vivo, human. How it is done:
A test formulation containing a hydroxycarboxylic acid, N-acyl-aldosamine, N-acylamino acid or related compound was topically applied once or twice daily to skin or mucus membrane organs or sites such as lips, eyelids, breasts and penis for one to six months. Increased fullness, volume, contour or the effect of enlarging, expanding, augmenting, enhancing, firming, pouting, plumping or elongating after topical application was measured or determined by clinical as well as photographic evaluations. One of the measurements for breast enlargement or augmentation was by the size of brassiere cup. After topical application of the active ingredient, the subject would feel fullness or greater tightness of their treated breast with increased volume and contour, and there was a need to change and increase the size of the brassiere cup. Thus the enlargement or augmentation of the breast was determined by clinical as well as the increased size of brassiere cup.
A subject, applied topically twice daily gluconolactone 15% lotion to their right breast for 3 months. […] At this time, they began treating both breasts. […]

In a further test the test system is penis. Put plainly: Direct augmentation of penis, penile circumference by tape measure. In kind it is in vivo, human. The following applies: 20% solution two to three times daily for six weeks, person. How it is done:
The plumping, pouting or firming effects on lips and eyelids by topical application of an hydroxycarboxylic acid, N-acyl-aldosamine, N-acylamino acid or related compound was determined by clinical as well as photographic evaluation. The elongation or expanding effect of penis was determined by direct measurement of penis before and after once or twice daily topical application of an hydroxycarboxylic acid, N-acyl-aldosamine, N-acylamino acid or related compound. • (C) Antioxidants
One test on direct augmentation of penis was carried out as follows. Lactobionic acid 20% solution was prepared by dissolving lactobionic acid 20 g in water 50 ml and propylene glycol 30 ml. A subject, volunteered to test an active ingredient of the present invention to enhance penile enlargement. Each morning for one week prior to treatment penile circumference was measured. Measurements were made with a cloth tailor's tape measure. Penile circumference of the glans region, which included the covering foreskin, ranged from 9.5 cm to 10.5 cm. The above lactobionic acid 20% solution was topically applied two to three times daily on the glans penis including the covering foreskin region for six weeks. Morning measurements were again made daily for one week after treatment was stopped. Penile circumference ranged from 11.5 cm to 13 cm after six weeks of topical treatment with 20% lactobionic acid solution.

Test [1] in a line: Banana peel air oxidation test (antioxidant property). The following applies: 0.1 M, 5 ml, room temperature. The source says: (§1) An antioxidant can be defined as a substance capable of preventing or inhibiting oxidation. The antioxidant property can be readily determined by using any one of the following test methods: prevention or retardation of air oxidation of (a) anthralin, (b) hydroquinone, or (c) banana peel. A freshly prepared anthralin solution or cream is bright yellow, and an air oxidized one is brownish or black. A hydroquinone solution or cream is colorless or white color, and an air oxidized one is brownish or black. A freshly peeled banana peel is light yellow in color and an oxidized one ranges in color from tan, dark tan, brown to brownish black.

Test [2] can be described thus: Antioxidant screen tests: air oxidation of anthralin and hydroquinone.
Excerpt: as §1

In another test the test system is eyelids, lips, skin. Put plainly: Plumping or firming of eyelids, lips and skin, clinical and photographic evaluation. In kind it is in vivo, human. How it is done:
Standard photographs were taken before and after topical applications of test formulations. Plumping or firming effect was determined by clinical as well as photographic evaluation. It was discovered that hydroxycarboxylic acids, N-acyl-aldosamines, N-acylamino acids and related compounds had substantial effect on plumping or firming the eyelids. Aside from clinical as well as photographic evaluation, eyelids plumping or firming also was determined from the disappearance of certain skin lines on the eyelids skin. When eyelids skin was plumping up, the eyelids skin firmed up or pulled up, and the skin lines became less apparent or disappeared. Therefore, when the skin lines on the eyelids disappeared after topical application of a test formulation, the test substance was judged to have plumping or firming effect on the eyelids. It also was discovered that hydroxycarboxylic acids, N-acyl-aldosamines, N-acylamino acids and related compounds on topical application had firming or plumping up effects on the eyelids skin. […] Increased fullness, volume, contour or the effect of enlarging, expanding, augmenting, enhancing, firming, pouting, plumping or elongating after topical application was measured or determined by clinical as well as photographic evaluations. One of the measurements for breast enlargement or augmentation was by the size of brassiere cup. After topical application of the active ingredient, the subject would feel fullness or greater tightness of their treated breast with increased volume and contour, and there was a need to change and increase the size of the brassiere cup. Thus the enlargement or augmentation of the breast was determined by clinical as well as the increased size of brassiere cup. The plumping, pouting or firming effects on lips and eyelids by topical application of an hydroxycarboxylic acid, N-acyl-aldosamine, N-acylamino acid or related compound was determined by clinical as well as photographic evaluation. The elongation or expanding effect of penis was determined by direct measurement of penis before and after once or twice daily topical application of an hydroxycarboxylic acid, N-acyl-aldosamine, N-acylamino acid or related compound. • (C) Antioxidants

Where [3] appears, read: anthralin, hydroquinone or banana peel air oxidation.
[4] abbreviates: 14% cream twice daily, person, after two months.

Molecules are shown by their SMILES. Values joined by “and” are separate entries in the source; they are usually repeats but may differ in a detail not shown here. Equal entries are not always repeated. Where two headings read alike, the source gives them in different places.

As for `CC(O)C(=O)O` (racemic) [DL-Lactic Acid, 2-hydroxypropanoic acid], in the test on forearm skin, the “% Increase Over (summary of increased skin thickness)” value is on record as 17-42%.
For the compound `O=C(O)C(O)c1ccccc1` (racemic) [DL-Mandelic Acid, 2-henyl-2-hydroxyethanoic acid], the “% Increase Over (summary of increased skin thickness)” value in the test with forearm skin is 22-27%. Also, the “% Increase Over Control (skin thickness)” value with forearm skin (30% solution, twice daily on forearm skin, 4 months, control = opposite forearm, one subject) is 22% and 27%.
As for `CC(=O)NC1CCSC1=O` (racemic) [N-Acetyl-DL-homocysteine Thiolactone], the “% Increase Over Control (%) (skin thickness)” value with forearm skin (5% lotion, twice daily on forearm skin, 3 weeks, control = opposite forearm, one subject) is 13% and 65%.
As for `O=C1O[C@H](CO)[C@@H](O)[C@H](O)[C@H]1O` [D-Gluconolactone], the “size of treated right breast” value with breasts (15% lotion twice daily, person, after 6 weeks, untreated left breast no change) was “noticeable increase in the size of their right breast”. Further, the “plumpness and firmness of treated right breast compared to left breast” value in the test with breasts (15% lotion twice daily, person, at the end of 3 months) was “increased in plumpness and firmness”. Further, the “plumpness and firmness of both breasts” value in the test with breasts (15% lotion, both breasts treated, at the end of another 3 months (6 month treatment period)) is “substantially increased in plumpness and firmness”. The “% Increase Over (summary of increased skin thickness)” value in the test with forearm skin is listed as 7-19%.
With `O=C(O)CO` [Glycolic Acid, 2-hydroxyethanoic acid], in the test on forearm skin, the “% Increase Over (summary of increased skin thickness)” value was 11-43%.
As to `O=C(O)[C@H](O)[C@@H](O)[C@H](O[C@@H]1O[C@H](CO)[C@H](O)[C@H](O)[C@H]1O)[C@H](O)CO` [Lactobionic Acid, lactobionic acid], in the test on forearm skin, the “% Increase Over (summary of increased skin thickness)” value was 5-58%. For the same compound, the “% Increase Over Control (%) (skin thickness)” value in the test on forearm skin (Conc. 8%, twice daily on forearm skin, 3 months, control = opposite forearm, subject) amounted to 26%; with forearm skin (Conc. 20%, twice daily on forearm skin, 4 months, control = opposite forearm, subject) it was 10%. The “glans penile augmentation and foreskin thickness (in words)” value in the test with penis was “glans penile augmentation had occurred, as well as increased thickness of foreskin”. Further, the “color of fresh banana peels” value is recorded as “changed in color to tan” in test [1] (after 72 hours, control in water dark tan at 24 to 72 hours) and “remained white-yellowish” in test [1] (period of 24 hours, control in water tan within 6 hours). Moreover, the “antioxidant property by anthralin and hydroquinone test methods” value in test [2] was “moderate antioxidant”.
`O=C(O)[C@H](O)[C@@H](O)[C@H](O[C@@H]1O[C@H](CO)[C@H](O)[C@H](O)[C@H]1O)[C@H](O)CO` [Maltobionic acid, maltobionic acid]: the “skin fullness and plumping” value in the test with eyelids, lips, skin (20% solution twice daily applied prior to continued glyceric acid 14% cream, same subject, after five weeks) was “marked enhancement of skin fullness and plumping”.
For `CC(C)(O)C(=O)O` [Methyllactic Acid, 2-methyl-2-hydroxypropanoic acid], in the test on forearm skin, the “% Increase Over (summary of increased skin thickness)” value is recorded as 14-20%.
For the compound `CC(=O)N[C@@H](CS)C(=O)O` [N-Acetyl-L-cysteine], the “antioxidant properties based on the screen tests” value (“antioxidant properties based” for short) in test [2] (setting [3]) is reported as “antioxidant substances”.
In the case of `CCC(=O)N[C@H]1C(O)O[C@H](CO)[C@@H](O)[C@@H]1O` (stereo partly drawn) [N-Propanoyl-D-glucosamine], the “appearance of treated forearm skin when lifted” value with forearm skin (10% solution twice daily, at the end of treatment (6 to 9 weeks), untreated forearm still loose and relatively thin) was “more firm, smooth and plump when lifted”. The “increase in skin thickness of treated forearm” value stood at 8% in the test on forearm skin (10% solution twice daily, person one, after 4 weeks, untreated forearm no change); 23% with forearm skin (10% solution twice daily, person one, after 6 weeks, untreated forearm no change); 28% with forearm skin (10% solution twice daily, person one, after 9 weeks, untreated forearm no change); 13% in the test with forearm skin (10% solution twice daily, person two, after 4 weeks, untreated forearm no change); 27% in the test with forearm skin (10% solution twice daily, person two, after 6 weeks); 19% in the test on forearm skin (10% solution twice daily, person, after 5 weeks, untreated forearm no change). In the test on forearm skin (10% solution twice daily, person, after 8 weeks), the “increase in skin thickness of treated forearm” value is 33%.
`O=C(O)c1ccccc1O` [Salicylic Acid, 2-hydroxybenzoic acid, reference compound]: the “effect on skin plumpness or thickness (in words)” value with forearm skin (topical application on forearm skin) was “decreased instead of increasing skin thickness”.
On to `O=C(O)C(O)CO` (stereo not drawn) [glyceric acid, 2,3-dihydroxypropanoic acid], for which, in the test on eyelids, lips, skin (setting [4]), the lips plumpness result is listed as “more plump”; the plumping of skin entry is “plumping of skin was detectable”; the “skin of the upper arms appearance” value was “diminished crepe paper appearance”; the “upper eyelids droop and fullness” value was “diminished droop and enhanced fullness”.
Consider `O=C1O[C@H]([C@H](O)CO)C(O)=C1O` [isoascorbic acid, D-erythro-hex-2-enonic acidr-lactone], for which the “antioxidant properties based” value in test [2] (setting [3]) was “antioxidant substances”.
In the case of `O=C(O)CC(C(=O)O)C(O)C(=O)O` (stereo not drawn) [isocitric acid], the “antioxidant properties based” value in test [2] is “antioxidant substances”.
`O=C(O)CC(O)C(=O)O` (stereo not drawn) [malic acid, 2-hydroxybutane-1,4-dioic acid]: in test [2] (setting [3]), the “antioxidant properties based” value is reported as “antioxidant substances”.
Turning to `CC1(C)COC(=O)C1O` (stereo not drawn) [pantolactone], in test [2] (setting [3]), the “antioxidant properties based” value is “antioxidant substances”.
